Structures can show the parent of a compound that is named as a salt.
Columns and labels:
JAK3 = target: T1, JAK3 (Homo sapiens, UniProt P52333); assay: JAK3 Inhibition Assay; type: biochemical; conditions: 1 nM JAK3, 1 μM poly(Glu)4Tyr, 5 μM ATP, 25° C.; read-out: enzyme inhibition data (Ki) JAK3
T1 sequence (P52333 1-1124): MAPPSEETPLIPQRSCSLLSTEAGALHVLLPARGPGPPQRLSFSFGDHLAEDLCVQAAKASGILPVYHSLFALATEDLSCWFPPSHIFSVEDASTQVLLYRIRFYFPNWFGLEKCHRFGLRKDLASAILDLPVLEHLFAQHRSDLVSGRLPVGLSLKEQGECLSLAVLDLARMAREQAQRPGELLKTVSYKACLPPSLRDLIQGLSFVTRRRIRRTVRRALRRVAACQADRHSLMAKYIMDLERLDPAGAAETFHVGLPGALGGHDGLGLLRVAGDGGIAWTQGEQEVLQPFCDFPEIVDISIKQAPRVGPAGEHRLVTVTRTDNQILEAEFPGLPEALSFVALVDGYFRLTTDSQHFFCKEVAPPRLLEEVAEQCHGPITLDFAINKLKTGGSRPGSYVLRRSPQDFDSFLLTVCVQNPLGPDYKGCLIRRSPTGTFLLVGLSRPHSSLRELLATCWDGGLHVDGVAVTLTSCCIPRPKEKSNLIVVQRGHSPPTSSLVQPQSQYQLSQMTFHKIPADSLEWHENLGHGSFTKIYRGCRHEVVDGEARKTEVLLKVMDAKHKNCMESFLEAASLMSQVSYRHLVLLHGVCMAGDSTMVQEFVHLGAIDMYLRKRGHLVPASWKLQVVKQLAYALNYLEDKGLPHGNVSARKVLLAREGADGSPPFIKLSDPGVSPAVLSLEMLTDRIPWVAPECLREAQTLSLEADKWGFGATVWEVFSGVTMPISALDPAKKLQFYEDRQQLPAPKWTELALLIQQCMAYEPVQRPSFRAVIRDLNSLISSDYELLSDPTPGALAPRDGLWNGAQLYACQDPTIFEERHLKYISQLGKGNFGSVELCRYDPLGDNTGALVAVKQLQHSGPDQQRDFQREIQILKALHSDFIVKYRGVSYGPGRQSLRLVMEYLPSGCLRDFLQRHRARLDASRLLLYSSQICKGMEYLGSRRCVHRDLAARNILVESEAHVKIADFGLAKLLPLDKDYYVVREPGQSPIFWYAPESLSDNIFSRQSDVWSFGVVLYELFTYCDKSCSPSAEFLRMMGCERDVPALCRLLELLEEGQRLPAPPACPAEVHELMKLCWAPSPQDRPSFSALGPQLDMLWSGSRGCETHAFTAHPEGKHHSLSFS
Experimental: (§1) Compounds were screened for their ability to inhibit JAK3 using the assay shown below. Reactions were carried out in a kinase buffer containing 100 mM HEPES (pH 7.4), 1 mM DTT, 10 mM MgCl2, 25 mM NaCl, and 0.01% BSA. Substrate concentrations in the assay were 5 μM ATP (200 uCi/μmole ATP) and 1 μM poly(Glu)4Tyr. Reactions were carried out 25° C. and 1 nM JAK3.
(§2) To each well of a 96 well polycarbonate plate was added 1.5 μl of a candidate JAK3 inhibitor along with 50 μl of kinase buffer containing 2 μM poly(Glu)4Tyr and 10 μM ATP. This was then mixed and 50 μl of kinase buffer containing 2 nM JAK3 enzyme was added to start the reaction. After 20 minutes at room temperature (25° C.), the reaction was stopped with 50 μl of 20% trichloroacetic acid (TCA) that also contained 0.4 mM ATP. The entire contents of each well were then transferred to a 96 well glass fiber filter plate using a TomTek Cell Harvester. After washing, 60 μl of scintillation fluid was added and ^33P incorporation detected on a Perkin Elmer TopCount.

JAK2 = JAK2 (Homo sapiens, UniProt O60674); assay: JAK2 Inhibition Assay; type: biochemical; conditions: JAK-2 enzyme, 15 μM poly(Glu)4Tyr, 12 μM ATP
Chain of JAK2 (O60674 whole entry): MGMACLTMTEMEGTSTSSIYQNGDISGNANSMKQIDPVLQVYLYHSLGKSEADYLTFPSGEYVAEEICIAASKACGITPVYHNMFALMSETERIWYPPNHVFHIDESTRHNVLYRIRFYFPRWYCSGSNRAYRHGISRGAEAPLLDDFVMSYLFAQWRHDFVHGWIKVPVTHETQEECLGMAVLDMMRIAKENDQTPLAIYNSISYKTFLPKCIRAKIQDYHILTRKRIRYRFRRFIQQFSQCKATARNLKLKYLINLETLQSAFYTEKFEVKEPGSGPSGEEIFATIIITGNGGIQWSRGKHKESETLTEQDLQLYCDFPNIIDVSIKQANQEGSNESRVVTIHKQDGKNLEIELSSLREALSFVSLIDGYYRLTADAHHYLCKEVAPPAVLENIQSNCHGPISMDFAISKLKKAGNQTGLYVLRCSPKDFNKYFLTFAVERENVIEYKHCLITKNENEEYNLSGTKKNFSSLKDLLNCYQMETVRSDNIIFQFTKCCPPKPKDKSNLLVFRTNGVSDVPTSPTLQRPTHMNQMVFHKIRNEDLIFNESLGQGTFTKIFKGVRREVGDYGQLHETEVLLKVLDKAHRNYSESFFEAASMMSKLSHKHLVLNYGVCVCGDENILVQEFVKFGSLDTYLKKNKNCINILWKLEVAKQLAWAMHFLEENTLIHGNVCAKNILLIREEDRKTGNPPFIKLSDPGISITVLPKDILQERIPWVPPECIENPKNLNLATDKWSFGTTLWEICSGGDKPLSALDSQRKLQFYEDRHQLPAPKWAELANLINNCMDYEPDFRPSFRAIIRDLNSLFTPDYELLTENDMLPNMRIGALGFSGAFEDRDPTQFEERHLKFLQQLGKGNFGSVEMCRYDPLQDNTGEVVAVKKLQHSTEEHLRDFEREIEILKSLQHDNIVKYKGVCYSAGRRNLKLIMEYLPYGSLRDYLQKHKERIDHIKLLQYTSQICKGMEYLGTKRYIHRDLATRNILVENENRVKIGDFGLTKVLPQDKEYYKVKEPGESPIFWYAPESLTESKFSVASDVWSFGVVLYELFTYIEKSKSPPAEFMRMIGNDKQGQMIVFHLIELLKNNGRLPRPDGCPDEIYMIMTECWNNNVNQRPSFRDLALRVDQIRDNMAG
Experimental: as §1, §2
The assays were as described above in Example 36 except that JAK-2 enzyme was used, the final poly(Glu)4Tyr concentration was 15 μM, and final ATP concentration was 12 μM.

Row | Ki (JAK3) [nM] | Ki (JAK2) [nM] | SMILES
1 | < 500 | < 500 | CC(=O)N1[C@H](C)CN(c2cccc(-c3c[nH]c4ncncc34)n2)C[C@@H]1C [Compound 1, 1-((2S,6R)-4-(6-(7H-pyrrolo[2,3-d]pyrimidin-5-yl)pyridin-2-yl)-2,6-dimethylpiperazin-1-yl)ethanone]
2 | 500 to 5000 | > 5000 | CCOC(=O)c1cc(N[C@@H](C)C(=O)NCC(F)(F)F)nc(-c2c[nH]c3ncncc23)n1 [Compound 2]
3 | < 500 | > 5000 | C[C@H](Nc1cc(C(=O)O)nc(-c2c[nH]c3ncncc23)n1)C(=O)NCC(F)(F)F [Compound 3, 6-((S)-1-(2,2,2-trifluoroethylcarbamoyl)ethylamino)-2-(7H-pyrrolo[2,3-d]pyrimidin-5-yl)pyrimidine-4-carboxylic acid]
4 | < 500 | < 500 | C[C@H](Nc1cccc(-c2c[nH]c3ncncc23)n1)C(=O)NCC(F)(F)F [Compound 4, (S)-2-(6-(7H-pyrrolo[2,3-d]pyrimidin-5-yl)pyridin-2-ylamino)-N-(2,2,2-trifluoroethyl)propanamide]
5 | < 500 | < 500 | C[C@H](Nc1ccnc(-c2c[nH]c3ncncc23)n1)C(=O)NCC(F)(F)F [Compound 5, (S)-2-(2-(7H-pyrrolo[2,3-d]pyrimidin-5-yl)pyrimidin-4-ylamino)-N-(2,2,2-trifluoroethyl)propanamide]
6 | < 500 | < 500 | C[C@H](Nc1nc(-c2c[nH]c3ncncc23)ncc1F)C(=O)NCC(F)(F)F [Compound 6, (S)-2-(5-fluoro-2-(7H-pyrrolo[2,3-d]pyrimidin-5-yl)pyrimidin-4-ylamino)-N-(2,2,2-trifluoroethyl)propanamide]
7 | < 500 | 500 to 5000 | CC1CCN(C(=O)c2cc(N[C@@H](C)C(=O)NCC(F)(F)F)nc(-c3c[nH]c4ncncc34)n2)CC1 [Compound 7]
8 | < 500 | 500 to 5000 | C[C@H](Nc1cc(C(=O)N2CCC[C@H]2CO)nc(-c2c[nH]c3ncncc23)n1)C(=O)NCC(F)(F)F [Compound 8]
9 | < 500 | 500 to 5000 | C[C@H](Nc1cc(C(=O)N2CCCC2)nc(-c2c[nH]c3ncncc23)n1)C(=O)NCC(F)(F)F [Compound 9]
10 | 500 to 5000 | > 5000 | C[C@H](Nc1cc(OC2CCOC2)nc(-c2c[nH]c3ncncc23)n1)C(=O)NCC(F)(F)F (some centres unmarked) [Compound 10]
11 | 500 to 5000 | > 5000 | COC[C@H]1CCCN1C(=O)c1cc(N[C@@H](C)C(=O)NCC(F)(F)F)nc(-c2c[nH]c3ncncc23)n1 [Compound 11]
12 | < 500 | 500 to 5000 | C[C@H](Nc1cc(C(=O)N2CCOCC2)nc(-c2c[nH]c3ncncc23)n1)C(=O)NCC(F)(F)F [Compound 12]
13 | 500 to 5000 | 500 to 5000 | C[C@H](Nc1cc(C(=O)N2CCC(O)CC2)nc(-c2c[nH]c3ncncc23)n1)C(=O)NCC(F)(F)F [Compound 13]
14 | < 500 | 500 to 5000 | COCCNC(=O)c1cc(N[C@@H](C)C(=O)NCC(F)(F)F)nc(-c2c[nH]c3ncncc23)n1 [Compound 14]
15 | 500 to 5000 | 500 to 5000 | C[C@H](Nc1cc(C(=O)N(C)CCO)nc(-c2c[nH]c3ncncc23)n1)C(=O)NCC(F)(F)F [Compound 15]
16 | 500 to 5000 | 500 to 5000 | CC(C)[C@H](C)NC(=O)c1cc(N[C@@H](C)C(=O)NCC(F)(F)F)nc(-c2c[nH]c3ncncc23)n1 [Compound 16]

Row | Ki (JAK3) [nM] | Ki (JAK2) [nM] | SMILES
17 | 500 to 5000 | 500 to 5000 | C[C@H](Nc1cc(C(=O)N(C)Cc2ccccc2)nc(-c2c[nH]c3ncncc23)n1)C(=O)NCC(F)(F)F [Compound 17]
18 | < 500 | 500 to 5000 | C[C@H](Nc1cc(-c2ccccc2)nc(-c2c[nH]c3ncncc23)n1)C(=O)NCC(F)(F)F [Compound 18, (S)-2-(6-phenyl-2-(7H-pyrrolo[2,3-d]pyrimidin-5-yl)pyrimidin-4-ylamino)-N-(2,2,2-trifluoroethyl)propanamide]
19 | < 500 | 500 to 5000 | C[C@H](Nc1cc(C#N)cc(-c2c[nH]c3ncncc23)n1)C(=O)NCC(F)(F)F [Compound 19, (S)-2-(4-cyano-6-(7H-pyrrolo[2,3-d]pyrimidin-5-yl)pyridin-2-ylamino)-N-(2,2,2-trifluoroethyl)propanamide]
20 | < 500 | 500 to 5000 | C[C@H](Nc1cc(-c2nnn[nH]2)cc(-c2c[nH]c3ncncc23)n1)C(=O)NCC(F)(F)F [Compound 20, (S)-2-(6-(7H-pyrrolo[2,3-d]pyrimidin-5-yl)-4-(1H-tetrazol-5-yl)pyridin-2-ylamino)-N-(2,2,2-trifluoroethyl)propanamide]
21 | 500 to 5000 | 500 to 5000 | OC[C@@H]1CCCN1c1nc(-c2c[nH]c3ncncc23)ncc1F [Compound 21, ((S)-1-(5-fluoro-2-(7H-pyrrolo[2,3-d]pyrimidin-5-yl)pyrimidin-4-yl)pyrrolidin-2-yl)methanol]
22 | 500 to 5000 | 500 to 5000 | OC[C@H]1CCCN1c1nc(-c2c[nH]c3ncncc23)ncc1F [Compound 22, ((R)-1-(5-fluoro-2-(7H-pyrrolo[2,3-d]pyrimidin-5-yl)pyrimidin-4-yl)pyrrolidin-2-yl)methanol]
23 | 500 to 5000 | 500 to 5000 | COC[C@@H]1CCCN1c1nc(-c2c[nH]c3ncncc23)ncc1F [Compound 23, 5-(5-fluoro-4-((S)-2-(methoxymethyl)pyrrolidin-1-yl)pyrimidin-2-yl)-7H-pyrrolo[2,3-d]pyrimidine]
24 | 500 to 5000 | 500 to 5000 | Fc1cnc(-c2c[nH]c3ncncc23)nc1N1CCCC1 [Compound 24, 5-(5-fluoro-4-(pyrrolidin-1-yl)pyrimidin-2-yl)-7H-pyrrolo[2,3-d]pyrimidine]
25 | 500 to 5000 | 500 to 5000 | COC[C@H]1CCCN1c1nc(-c2c[nH]c3ncncc23)ncc1F [Compound 25, 5-(5-fluoro-4-((R)-2-(methoxymethyl)pyrrolidin-1-yl)pyrimidin-2-yl)-7H-pyrrolo[2,3-d]pyrimidine]
26 | 500 to 5000 | > 5000 | O=C(NCC(F)(F)F)[C@@H]1CCCN1c1nc(-c2c[nH]c3ncncc23)ncc1F [Compound 26]
27 | < 500 | < 500 | O=C(NCC(F)(F)F)[C@H]1CCCN1c1nc(-c2c[nH]c3ncncc23)ncc1F [Compound 27]
28 | 500 to 5000 | 500 to 5000 | CC(C)(C)OC(=O)N1CC=C(c2cccc(-c3c[nH]c4ncncc34)n2)CC1 [Compound 28, 6-(7H-Pyrrolo[2,3-d]pyrimidin-5-yl)-3′,6′-dihydro-2′H-[2,4′]bipyridinyl-1′-carboxylic acid tert-butyl ester]
29 | 500 to 5000 | 500 to 5000 | C1=C(c2cccc(-c3c[nH]c4ncncc34)n2)CCNC1 [Compound 29, 6-(7H-Pyrrolo[2,3-d]pyrimidin-5-yl)-1′,2′,3′,6′-tetrahydro-[2,4′]bipyridinyl hydrochloride]
30 | < 500 | < 500 | N#CCC(=O)N1CC=C(c2cccc(-c3c[nH]c4ncncc34)n2)CC1 [Compound 30, 3-(4-(6-(7H-pyrrolo[2,3-d]pyrimidin-5-yl)pyridin-2-yl)-5,6-dihydropyridin-1(2H)-yl)-3-oxopropanenitrile]
31 | 500 to 5000 | > 5000 | C[C@H](Nc1nc(-c2c[nH]c3ncncc23)cc(N2CCCC2)n1)C(=O)NCC(F)(F)F [Compound 31, (S)-2-(4-(pyrrolidin-1-yl)-6-(7H-pyrrolo[2,3-d]pyrimidin-5-yl)pyrimidin-2-ylamino)-N-(2,2,2-trifluoroethyl)propanamide]

Source: US8580802B2, “Pyrrolo[2,3-D]pyrimidines as inhibitors of Janus kinases” (Vertex Pharmaceuticals Incorporated, priority 2005, dated 2013)
